From patent US12303517B1, “Oral testosterone therapy” (Lipocine, Inc., priority 2016, dated 2025)

Experiment: Single fixed dose dosing regimen examples for safety and efficacy (serum T Cmax / Cavg criteria), with food
Assay type: in vivo, human
[1] = Regimen 9, QD 1250 mg T13, with food with at least 10 g of fat
[2] = Regimen 10, BID-equal dose (AM/PM) 250/250 mg T13, with food with at least 10 g of fat
[3] = Regimen 11, BID-equal dose (AM/PM) 350/350 mg T13, with food with at least 10 g of fat
[4] = Regimen 12, BID-equal dose (AM/PM) 375/375 mg T13, with food with at least 10 g of fat
[5] = Regimen 13, BID-equal dose (AM/PM) 400/400 mg T13, with food with at least 10 g of fat
[6] = Regimen 14, BID-equal dose (AM/PM) 450/450 mg T13, with food with at least 10 g of fat
[7] = Regimen 15, BID-equal dose (AM/PM) 500/500 mg T13, with food with at least 10 g of fat
[8] = Regimen 16, BID-equal dose (AM/PM) 550/550 mg T13, with food with at least 10 g of fat
[9] = Regimen 17, BID-equal dose (AM/PM) 575/575 mg T13, with food with at least 10 g of fat
[10] = Regimen 18, BID-equal dose (AM/PM) 625/625 mg T13, with food with at least 10 g of fat

CCCCCCCCCCCCC(=O)O[C@H]1CC[C@H]2[C@@H]3CCC4=CC(=O)CC[C@]4(C)[C@H]3CC[C@]12C [T13, testosterone tridecanoate]
Cavg > 300 ng/dL ≥80% patients [1]: Yes
Cmax > 1500 ng/dL <15% patients [1]: No
Cmax > 1500 ng/dL <20% patients [1]: No
Cmax > 1800 ng/dL <5% patients [1]: No
Cmax > 1800 ng/dL <10% patients [1]: No
Cmax > 2500 ng/dL <2% patients [1]: No
Cmax > 2500 ng/dL none of patients [1]: No
Cavg > 300 ng/dL ≥75% patients [2]: No
Cavg > 300 ng/dL ≥80% patients [2]: No
Cmax > 1500 ng/dL <15% patients [2]: Yes
Cmax > 1500 ng/dL <20% patients [2]: Yes
Cmax > 1800 ng/dL <5% patients [2]: Yes
Cmax > 1800 ng/dL <10% patients [2]: Yes
Cmax > 2500 ng/dL <2% patients [2]: Yes
Cmax > 2500 ng/dL none of patients [2]: Yes
Cavg > 300 ng/dL ≥75% patients [3]: No
Cavg > 300 ng/dL ≥80% patients [3]: No
Cmax > 1500 ng/dL <15% patients [3]: Yes
Cmax > 1500 ng/dL <20% patients [3]: Yes
Cmax > 1800 ng/dL <5% patients [3]: Yes
Cmax > 1800 ng/dL <10% patients [3]: Yes
Cmax > 2500 ng/dL <2% patients [3]: Yes
Cmax > 2500 ng/dL none of patients [3]: Yes
Cavg > 300 ng/dL ≥75% patients [4]: Yes
Cavg > 300 ng/dL ≥80% patients [4]: No
Cmax > 1500 ng/dL <15% patients [4]: Yes
Cmax > 1500 ng/dL <20% patients [4]: Yes
Cmax > 1800 ng/dL <5% patients [4]: Yes
Cmax > 1800 ng/dL <10% patients [4]: Yes
Cmax > 2500 ng/dL <2% patients [4]: Yes
Cmax > 2500 ng/dL none of patients [4]: Yes
Cavg > 300 ng/dL ≥75% patients [5]: Yes
Cavg > 300 ng/dL ≥80% patients [5]: Yes
Cmax > 1500 ng/dL <15% patients [5]: Yes
Cmax > 1500 ng/dL <20% patients [5]: Yes
Cmax > 1800 ng/dL <5% patients [5]: Yes
Cmax > 1800 ng/dL <10% patients [5]: Yes
Cmax > 2500 ng/dL <2% patients [5]: Yes
Cmax > 2500 ng/dL none of patients [5]: Yes
Cavg > 300 ng/dL ≥75% patients [6]: Yes
Cavg > 300 ng/dL ≥80% patients [6]: Yes
Cmax > 1500 ng/dL <15% patients [6]: Yes
Cmax > 1500 ng/dL <20% patients [6]: Yes
Cmax > 1800 ng/dL <5% patients [6]: Yes
Cmax > 1800 ng/dL <10% patients [6]: Yes
Cmax > 2500 ng/dL <2% patients [6]: Yes
Cmax > 2500 ng/dL none of patients [6]: Yes
Cavg > 300 ng/dL ≥75% patients [7]: Yes
Cavg > 300 ng/dL ≥80% patients [7]: Yes
Cmax > 1500 ng/dL <15% patients [7]: Yes
Cmax > 1500 ng/dL <20% patients [7]: Yes
Cmax > 1800 ng/dL <5% patients [7]: Yes
Cmax > 1800 ng/dL <10% patients [7]: Yes
Cmax > 2500 ng/dL <2% patients [7]: Yes
Cmax > 2500 ng/dL none of patients [7]: Yes
Cavg > 300 ng/dL ≥75% patients [8]: Yes
Cavg > 300 ng/dL ≥80% patients [8]: Yes
Cmax > 1500 ng/dL <15% patients [8]: Yes
Cmax > 1500 ng/dL <20% patients [8]: Yes
Cmax > 1800 ng/dL <5% patients [8]: Yes
Cmax > 1800 ng/dL <10% patients [8]: Yes
Cmax > 2500 ng/dL <2% patients [8]: Yes
Cmax > 2500 ng/dL none of patients [8]: Yes
Cavg > 300 ng/dL ≥75% patients [9]: Yes
Cavg > 300 ng/dL ≥80% patients [9]: Yes
Cmax > 1500 ng/dL <15% patients [9]: Yes
Cmax > 1500 ng/dL <20% patients [9]: Yes
Cmax > 1800 ng/dL <5% patients [9]: Yes
Cmax > 1800 ng/dL <10% patients [9]: Yes
Cmax > 2500 ng/dL <2% patients [9]: Yes
Cmax > 2500 ng/dL none of patients [9]: Yes
Cavg > 300 ng/dL ≥75% patients [10]: Yes
Cavg > 300 ng/dL ≥80% patients [10]: Yes
Cmax > 1500 ng/dL <15% patients [10]: Yes
Cmax > 1500 ng/dL <20% patients [10]: Yes
Cmax > 1800 ng/dL <5% patients [10]: Yes
Cmax > 1800 ng/dL <10% patients [10]: Yes
Cmax > 2500 ng/dL <2% patients [10]: Yes
Cmax > 2500 ng/dL none of patients [10]: Yes
